The values that follow come from US11325899B2, “Benzofurane and benzothiophene derivatives as PGE2 receptor modulators” (IDORSIA PHARMACEUTICALS LTD, priority 2017, dated 2022).

For this assay, the target named is T1, EP4 receptor (Homo sapiens, UniProt P35408).
T1 construct: BT549 breast cancer cells, express high endogenous EP4 levels and very low EP2 levels; host or cells: BT549 breast cancer cells
T1 sequence (P35408 whole entry): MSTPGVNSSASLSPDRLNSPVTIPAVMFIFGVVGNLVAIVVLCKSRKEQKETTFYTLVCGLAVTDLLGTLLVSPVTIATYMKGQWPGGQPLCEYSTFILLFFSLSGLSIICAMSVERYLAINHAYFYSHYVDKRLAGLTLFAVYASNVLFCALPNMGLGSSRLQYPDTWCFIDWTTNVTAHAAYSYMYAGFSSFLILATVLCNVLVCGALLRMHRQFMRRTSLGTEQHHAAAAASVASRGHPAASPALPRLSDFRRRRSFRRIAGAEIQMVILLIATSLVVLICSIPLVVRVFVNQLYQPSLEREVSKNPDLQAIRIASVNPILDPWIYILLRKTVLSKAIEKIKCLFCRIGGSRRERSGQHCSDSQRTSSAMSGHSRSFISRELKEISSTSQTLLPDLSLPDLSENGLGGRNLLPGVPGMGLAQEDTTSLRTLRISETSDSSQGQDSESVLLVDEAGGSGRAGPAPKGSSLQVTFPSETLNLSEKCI
Nature of the assay: hEP4 cAMP assay (BT549 breast cancer cells, HTRF cAMP, PGE2 stimulation). It is filed as cell-based. The note with it: antagonistic activity, PGE2 6 nM (EC80). The gist of the method: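 BT549 cells, with endogenous EP4 and very low EP2, were preincubated 45 min at room temperature with compound in HBSS/HEPES/BSA buffer with 2 mM IBMX. They were then stimulated 30 min with 6 nM PGE2 (EC80). cAMP was measured by HTRF competitive immunoassay against a calibrator; IC50 from duplicate dose-response as % of DMSO control.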
On the technique in general: Cyclic AMP is a second messenger, typically raised through Gs and lowered through Gi signalling.
`Cc1cc(-c2cc(NCCc3c(C)oc4c(C)cc(F)cc34)ncn2)sc1C(=O)O` [Example 2, 5-{6-[2-(5-Fluoro-2,7-dimethyl-benzofuran-3-yl)-ethylamino]-pyrimidin-4-yl}-3-methyl-thiophene-2-carboxylic acid]: the IC50 (in general, the concentration at which inhibition is half-maximal) worked out at 117 nM.

`Cc1cc(-c2cc(NCCc3c(C)sc4c(C)cccc34)ncn2)sc1C(=O)O` [Example 3, 5-{6-[2-(2,7-Dimethyl-benzo[b]thiophen-3-yl)-ethylamino]-pyrimidin-4-yl}-3-methyl-thiophene-2-carboxylic acid] showed an IC50 of 222 nM.

In turn, `Cc1cc(-c2cc(NCCc3c(C)oc4c(C)cc(Cl)cc34)ncn2)sc1C(=O)O` [Example 4, 5-{6-[2-(5-Chloro-2,7-dimethyl-benzofuran-3-yl)-ethylamino]-pyrimidin-4-yl}-3-methyl-thiophene-2-carboxylic acid] returned an IC50 of 394 nM.

The compound `CSc1cc(-c2cc(NCCc3c(C)sc4c(C)cccc34)ncn2)ccc1C(=O)O` [Example 14, 4-{6-[2-(2,7-Dimethyl-benzo[b]thiophen-3-yl)-ethylamino]-pyrimidin-4-yl}-2-methylsulfanyl-benzoic acid] came in with an IC50 of 105 nM.

`COc1ccc(Cl)c2c(CCNc3cc(-c4ccc(C(=O)O)c(SC)c4)ncn3)c(C)sc12` [Example 15, 4-{6-[2-(4-Chloro-7-methoxy-2-methyl-benzo[b]thiophen-3-yl)-ethylamino]-pyrimidin-4-yl}-2-methylsulfanyl-benzoic acid] gave an IC50 of 134 nM.

As for `CSc1cc(-c2cc(NCCc3c(C)oc4c(C)cc(F)cc34)ncn2)ccc1C(=O)O` [Example 16, 4-{6-[2-(5-Fluoro-2,7-dimethyl-benzofuran-3-yl)-ethylamino]-pyrimidin-4-yl}-2-methylsulfanyl-benzoic acid], the IC50 was found to be 189 nM.

In turn, `CSc1cc(-c2cc(NCCc3c(C)sc4c(C)cc(F)cc34)ncn2)ccc1C(=O)O` [Example 17, 4-{6-[2-(5-Fluoro-2,7-dimethyl-benzo[b]thiophen-3-yl)-ethylamino]-pyrimidin-4-yl}-2-methylsulfanyl-benzoic acid] displayed an IC50 of 243 nM.

With `CSc1cc(-c2cc(NCCc3c(C)oc4ccccc34)ncn2)ccc1C(=O)O` [Example 18, 4-{6-[2-(2-Methyl-benzofuran-3-yl)-ethylamino]-pyrimidin-4-yl}-2-methylsulfanyl-benzoic acid], the IC50 stood at 414 nM.

In turn, `CSc1cc(-c2cc(NCCc3c(C)sc4c(C)ccc(Cl)c34)ncn2)ccc1C(=O)O` [Example 19, 4-{6-[2-(4-Chloro-2,7-dimethyl-benzo[b]thiophen-3-yl)-ethylamino]-pyrimidin-4-yl}-2-methylsulfanyl-benzoic acid] gave an IC50 of 468 nM.

For `CSc1cc(-c2cc(NCCc3c(C)sc4c(Cl)ccc(Cl)c34)ncn2)ccc1C(=O)O` [Example 20, 4-{6-[2-(4,7-Dichloro-2-methyl-benzo[b]thiophen-3-yl)-ethylamino]-pyrimidin-4-yl}-2-methylsulfanyl-benzoic acid], the IC50 stood at 532 nM.

As for `CSc1cc(-c2cc(NCCc3c(C)sc4c(C)c(F)ccc34)ncn2)ccc1C(=O)O` [Example 21, 4-{6-[2-(6-Fluoro-2,7-dimethyl-benzo[b]thiophen-3-yl)-ethylamino]-pyrimidin-4-yl}-2-methylsulfanyl-benzoic acid], the IC50 came to 564 nM.

`CCc1oc2c(C)cc(F)cc2c1CCNc1cc(-c2ccc(C(=O)O)c(SC)c2)ncn1` [Example 22, 4-{6-[2-(2-Ethyl-5-fluoro-7-methyl-benzofuran-3-yl)-ethylamino]-pyrimidin-4-yl}-2-methylsulfanyl-benzoic acid] came in with an IC50 of 661 nM.

Regarding `CSc1cc(-c2cc(NCCc3c(C)sc4c(Cl)cc(F)cc34)ncn2)ccc1C(=O)O` [Example 23, 4-{6-[2-(7-Chloro-5-fluoro-2-methyl-benzo[b]thiophen-3-yl)-ethylamino]-pyrimidin-4-yl}-2-methylsulfanyl-benzoic acid], the IC50 was found to be 667 nM.

Compound `CSc1cc(-c2cc(NCCc3c(C)sc4ccccc34)ncn2)ccc1C(=O)O` [Example 24, 4-{6-[2-(2-Methyl-benzo[b]thiophen-3-yl)-ethylamino]-pyrimidin-4-yl}-2-methylsulfanyl-benzoic acid] yielded an IC50 of 795 nM. This IC50 and that of the compound before are within 1.5-fold of each other.

`CCOc1cc(-c2cc(NCCc3c(C)sc4c(C)ccc(F)c34)ncn2)sc1C(=O)O` [Example 25, 3-Ethoxy-5-{6-[2-(4-fluoro-2,7-dimethyl-benzo[b]thiophen-3-yl)-ethylamino]-pyrimidin-4-yl}-thiophene-2-carboxylic acid] registered an IC50 of 1 nM.

In turn, `CCOc1cc(-c2cc(NCCc3c(C)sc4c(OC)ccc(F)c34)ncn2)sc1C(=O)O` [Example 28, 3-Ethoxy-5-{6-[2-(4-fluoro-7-methoxy-2-methyl-benzo[b]thiophen-3-yl)-ethylamino]-pyrimidin-4-yl}-thiophene-2-carboxylic acid] gave an IC50 of 5 nM.

The compound `CCOc1cc(-c2cc(NCCc3c(C)sc4c(C)ccc(Cl)c34)ncn2)sc1C(=O)O` [Example 29, 5-{6-[2-(4-Chloro-2,7-dimethyl-benzo[b]thiophen-3-yl)-ethylamino]-pyrimidin-4-yl}-3-ethoxy-thiophene-2-carboxylic acid] returned an IC50 of 9 nM.

`CCOc1cc(-c2cc(NCCc3c(C)sc4c(OC)ccc(Cl)c34)ncn2)sc1C(=O)O` [Example 30, 5-{6-[2-(4-Chloro-7-methoxy-2-methyl-benzo[b]thiophen-3-yl)-ethylamino]-pyrimidin-4-yl}-3-ethoxy-thiophene-2-carboxylic acid] gave an IC50 of 11 nM. The IC50 values of the last two compounds are within 1.5-fold of each other.

`CCOc1cc(-c2cc(NCCc3c(C)oc4c(OC)cc(F)c(F)c34)ncn2)sc1C(=O)O` [Example 31, 5-{6-[2-(4,5-Difluoro-7-methoxy-2-methyl-benzofuran-3-yl)-ethylamino]-pyrimidin-4-yl}-3-ethoxy-thiophene-2-carboxylic acid] yielded an IC50 of 13 nM.

`CCOc1cc(-c2cc(NCCc3c(C)sc4c(C)cc(F)cc34)ncn2)sc1C(=O)O` [Example 32, 3-Ethoxy-5-{6-[2-(5-fluoro-2,7-dimethyl-benzo[b]thiophen-3-yl)-ethylamino]-pyrimidin-4-yl}-thiophene-2-carboxylic acid] gave an IC50 of 13 nM. This lies in the double-digit nanomolar range.

`CCOc1cc(-c2cc(NCCc3csc4ccccc34)ncn2)sc1C(=O)O` [Example 33, 5-[6-(2-Benzo[b]thiophen-3-yl-ethylamino)-pyrimidin-4-yl]-3-ethoxy-thiophene-2-carboxylic acid] yielded an IC50 of 18 nM. This IC50 and that of the compound before are within 1.5-fold of each other.

For `CCOc1cc(-c2cc(NCCc3c(C)oc4c(OC)ccc(F)c34)ncn2)sc1C(=O)O` [Example 34, 3-Ethoxy-5-{6-[2-(4-fluoro-7-methoxy-2-methyl-benzofuran-3-yl)-ethylamino]-pyrimidin-4-yl}-thiophene-2-carboxylic acid], 22 nM corresponded to half-maximal inhibition (IC50).

`CCOc1cc(-c2cc(NCCc3c(C)oc4c(Cl)cccc34)ncn2)sc1C(=O)O` [Example 35, 5-{6-[2-(7-Chloro-2-methyl-benzofuran-3-yl)-ethylamino]-pyrimidin-4-yl}-3-ethoxy-thiophene-2-carboxylic acid] registered an IC50 of 36 nM.

In the case of `CCOc1cc(-c2cc(NCCc3c(C)sc4c(C)cccc34)ncn2)sc1C(=O)O` [Example 36, 5-{6-[2-(2,7-Dimethyl-benzo[b]thiophen-3-yl)-ethylamino]-pyrimidin-4-yl}-3-ethoxy-thiophene-2-carboxylic acid], half-maximal inhibition (IC50) required 44 nM.

`CCOc1cc(-c2cc(NCCc3c(C)oc4c(C)cc(F)cc34)ncn2)sc1C(=O)O` [Example 37, 3-Ethoxy-5-{6-[2-(5-fluoro-2,7-dimethyl-benzofuran-3-yl)-ethylamino]-pyrimidin-4-yl}-thiophene-2-carboxylic acid]: the concentration for half-maximal inhibition (IC50) was 49 nM.

The compound `CCOc1cc(-c2cc(NCCc3c(C)oc4c(OC)cc(Cl)cc34)ncn2)sc1C(=O)O` [Example 38, 5-{6-[2-(5-Chloro-7-methoxy-2-methyl-benzofuran-3-yl)-ethylamino]-pyrimidin-4-yl}-3-ethoxy-thiophene-2-carboxylic acid] displayed an IC50 of 80 nM.

The compound `CCOc1cc(-c2cc(NCCc3c(CC)oc4c(C)cc(F)cc34)ncn2)sc1C(=O)O` [Example 39, 3-Ethoxy-5-{6-[2-(2-ethyl-5-fluoro-7-methyl-benzofuran-3-yl)-ethylamino]-pyrimidin-4-yl}-thiophene-2-carboxylic acid] showed an IC50 of 112 nM.

Compound `COc1cc(-c2cc(NCCc3c(C)sc4c(OC)ccc(Cl)c34)ncn2)ccc1C(=O)O` [Example 40, 4-{6-[2-(4-Chloro-7-methoxy-2-methyl-benzo[b]thiophen-3-yl)-ethylamino]-pyrimidin-4-yl}-2-methoxy-benzoic acid] returned an IC50 of 433 nM. This IC50 lies about 3.9-fold higher than the previous one.

For `CCSc1cc(-c2cc(NCCc3c(C)sc4c(C)cccc34)ncn2)ccc1C(=O)O` [Example 42, 4-{6-[2-(2,7-Dimethyl-benzo[b]thiophen-3-yl)-ethylamino]-pyrimidin-4-yl}-2-ethylsulfanyl-benzoic acid], it took 224 nM to reach half-maximal inhibition (IC50).

Compound `CCSc1cc(-c2cc(NCCc3c(C)sc4ccccc34)ncn2)ccc1C(=O)O` [Example 43, 2-Ethylsulfanyl-4-{6-[2-(2-methyl-benzo[b]thiophen-3-yl)-ethylamino]-pyrimidin-4-yl}-benzoic acid] had an IC50 of 497 nM. This IC50 lies about 2.2-fold higher than the previous one.

In turn, `CCSc1cc(-c2cc(NCCc3c(C)oc4ccccc34)ncn2)ccc1C(=O)O` [Example 44, 2-Ethylsulfanyl-4-{6-[2-(2-methyl-benzofuran-3-yl)-ethylamino]-pyrimidin-4-yl}-benzoic acid] gave an IC50 of 1380 nM.

`CCCc1cc(-c2cc(NCCc3c(C)sc4c(C)cc(F)cc34)ncn2)ccc1C(=O)O` [Example 45, 4-{6-[2-(5-Fluoro-2,7-dimethyl-benzo[b]thiophen-3-yl)-ethylamino]-pyrimidin-4-yl}-2-propyl-benzoic acid] registered an IC50 of 147 nM.
